Measurements: patent US8168680B2, “Cyclopentane heptan(ENE)OIC acid, 2-heteroarylalkenyl derivatives as therapeutic agents” (Allergan, Inc., priority 2004, dated 2012)

Assays:
Type in all cases: cell-based
hTP = target: T1, hTP (Homo sapiens, UniProt P21731); assay: FLIPR calcium signal, HEK-293(EBNA) cells expressing hTP; conditions: recombinant human TP receptor, read-out: FUNCTIONAL DATA EC50 HTP
T1 construct: expressed in transfected cells; host or cells: HEK-293(EBNA)
T1 sequence (P21731 1-343): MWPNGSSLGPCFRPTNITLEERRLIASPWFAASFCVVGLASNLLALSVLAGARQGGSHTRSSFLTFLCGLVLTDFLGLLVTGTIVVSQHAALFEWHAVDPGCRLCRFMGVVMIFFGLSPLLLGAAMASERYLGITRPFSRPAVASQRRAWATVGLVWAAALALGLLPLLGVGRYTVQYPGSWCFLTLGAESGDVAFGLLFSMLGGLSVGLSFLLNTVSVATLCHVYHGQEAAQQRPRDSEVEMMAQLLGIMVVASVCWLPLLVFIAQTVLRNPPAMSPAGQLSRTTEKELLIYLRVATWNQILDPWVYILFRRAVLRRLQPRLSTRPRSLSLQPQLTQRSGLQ
Procedure: (§1) Methods for FLIPR™ Studies
(§2) HEK-293(EBNA) cells, stably expressing one type or subtype of recombinant human prostaglandin receptors (prostaglandin receptors expressed: hDP/Gqs5; hEP1; hEP2/Gqs5; hEP3A/Gqi5; hEP4/Gqs5; hFP; hIP; hTP), were cultured in 100 mm culture dishes in high-glucose DMEM medium containing 10% fetal bovine serum, 2 mM 1-glutamine, 250 μg/ml geneticin (G418) and 200 μg/ml hygromycin B as selection markers, and 100 units/ml penicillin G, 100 μg/ml streptomycin and 0.25 μg/ml amphotericin B.
(§3) (b) Calcium Signal Studies on the FLIPR™
(§4) Cells were seeded at a density of 5×10^4 cells per well in Biocoat® Poly-D-lysine-coated black-wall, clear-bottom 96-well plates (Becton-Dickinson) and allowed to attach overnight in an incubator at 37° C. Cells were then washed two times with HBSS-HEPES buffer (Hanks Balanced Salt Solution without bicarbonate and phenol red, 20 mM HEPES, pH 7.4) using a Denley Cellwash plate washer (Labsystems). After 45 minutes of dye-loading in the dark, using the calcium-sensitive dye Fluo-4 AM at a final concentration of 2 μM, plates were washed four times with HBSS-HEPES buffer to remove excess dye leaving 100 μl in each well. Plates were re-equilibrated to 37° C. for a few minutes.
(§5) Cells were excited with an Argon laser at 488 nm, and emission was measured through a 510-570 nm bandwidth emission filter (FLIPR™, Molecular Devices, Sunnyvale, Calif.). Drug solution was added in a 50 μl volume to each well to give the desired final concentration. The peak increase in fluorescence intensity was recorded for each well. On each plate, four wells each served as negative (HBSS-HEPES buffer) and positive controls (standard agonists: BW245C (hDP); PGE2 (hEP1; hEP2/Gqs5; hEP3A/Gqi5; hEP4/Gqs5); PGF2α (hFP); carbacyclin (hIP); U-46619 (hTP), depending on receptor). The peak fluorescence change in each drug-containing well was then expressed relative to the controls.
(§6) Compounds were tested in a high-throughput (HTS) or concentration-response (CoRe) format. […]

hFP = target: T2, hFP (Homo sapiens, UniProt P43088); assay: FLIPR calcium signal, HEK-293(EBNA) cells expressing hFP; conditions: recombinant human FP receptor, read-out: FUNCTIONAL DATA EC50 HFP
T2 construct: expressed in transfected cells; host or cells: HEK-293(EBNA)
T2 sequence (P43088 whole entry): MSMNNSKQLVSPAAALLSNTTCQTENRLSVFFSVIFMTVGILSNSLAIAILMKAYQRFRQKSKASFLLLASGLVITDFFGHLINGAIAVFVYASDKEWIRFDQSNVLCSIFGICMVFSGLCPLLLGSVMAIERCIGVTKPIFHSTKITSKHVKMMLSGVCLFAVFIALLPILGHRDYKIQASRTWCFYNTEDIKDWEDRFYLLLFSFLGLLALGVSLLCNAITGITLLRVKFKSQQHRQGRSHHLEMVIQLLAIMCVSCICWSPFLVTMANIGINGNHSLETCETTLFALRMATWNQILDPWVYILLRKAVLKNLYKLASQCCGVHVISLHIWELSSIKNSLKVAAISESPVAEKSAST
Procedure: as §1, §2, §3, §4, §5
Compounds were tested in a high-throughput (HTS) or concentration-response (CoRe) format. In the HTS format, forty-four compounds per plate were examined in duplicates at a concentration of 10^−5 M. To generate concentration-response curves, four compounds per plate were tested in duplicates in a concentration range between 10^−5 and 10^−11 M. The duplicate values were averaged. In either, HTS or CoRe format each compound was tested on at least 3 separate plates using cells from different passages to give an n≧3.

hEP3A/Gqi5 = target: T3, hEP3A/Gqi5 (Homo sapiens, UniProt P43115); assay: FLIPR calcium signal, HEK-293(EBNA) cells expressing hEP3A/Gqi5; conditions: recombinant human EP3A/Gqi5, HEK-293(EBNA), read-out: FUNCTIONAL DATA EC50 HEP3A
T3 construct: expressed in transfected cells; host or cells: HEK-293(EBNA)
T3 sequence (P43115 1-390): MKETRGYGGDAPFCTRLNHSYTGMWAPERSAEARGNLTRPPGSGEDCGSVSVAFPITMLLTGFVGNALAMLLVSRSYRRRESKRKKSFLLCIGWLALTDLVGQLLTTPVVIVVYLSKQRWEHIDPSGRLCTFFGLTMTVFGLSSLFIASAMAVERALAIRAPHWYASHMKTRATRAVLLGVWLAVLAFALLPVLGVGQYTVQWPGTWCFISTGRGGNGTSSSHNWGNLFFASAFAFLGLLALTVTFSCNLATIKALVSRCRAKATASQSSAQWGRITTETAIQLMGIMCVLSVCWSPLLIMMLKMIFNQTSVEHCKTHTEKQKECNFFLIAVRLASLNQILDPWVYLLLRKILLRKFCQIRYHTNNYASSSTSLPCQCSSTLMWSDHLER
Procedure: as §1, §2, §3, §4, §5, §6

| Compound | EC50 (hTP) [nM] | EC50 (hFP) [nM] | EC50 (hEP3A/Gqi5) [nM] |
| --- | --- | --- | --- |
| C=C[C@@H]1CC(O)[C@H](C/C=C\CCCC(=O)OC)[C@H]1/C=C/[C@@H](O)CCc1cc(Br)c(C)s1 (single isomer, unassigned) [drawing 51] | > 10000 | > 10000 |  |
| C=C[C@@H]1CC(O)[C@H](C/C=C\CCCC(=O)OC)[C@H]1/C=C/[C@@H](O)CCc1cc(Br)c(C)s1 (single isomer, unassigned) [drawing 49] | 1810 | 742 | 6010 |
| C=C[C@@H]1CC(O)[C@H](C/C=C\CCCC(=O)O)[C@H]1/C=C/[C@@H](O)CCc1cc(Br)c(C)s1 (single isomer, unassigned) [drawing 48] |  | 1530 | 554 |

Stronger by EC50 (hFP), values ahead:

| EC50 (hTP) [nM] | EC50 (hFP) [nM] | EC50 (hEP3A/Gqi5) [nM] | Compound |
| --- | --- | --- | --- |
| 243 | 61 | 304 | C=C[C@@H]1CC(O)[C@H](C/C=C\CCCC(=O)O)[C@H]1/C=C/[C@@H](O)CCc1cc(Br)c(C)s1 (single isomer, unassigned) [drawing 47] |
|  | 43 |  | Cc1sc(CC[C@H](O)/C=C/[C@H]2[C@H](C)CC(O)[C@@H]2C/C=C\CCCC(=O)O)cc1Br (single isomer, unassigned) |
